Experimental data published in patent US8901118B2, “Compounds and methods for kinase modulation, and indications therefor” (Plexxikon Inc., priority 2010, dated 2014).

What was measured:
[1] = target: Fms kinase (Homo sapiens, UniProt P07333); assay: Fms kinase biochemical activity assay (AlphaScreen, biotin-(E4Y)10 phosphorylation); conditions: 100 μM ATP; read-out: Biochemical Inhibition IC50 Fms
Procedure, shortened: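 Fms kinase (1 ng/well) phosphorylating 30 nM biotin-(E4Y)10 with 100 μM ATP in 25 mM Hepes pH 7.5, MgCl2/MnCl2, 5% DMSO, 20 min at 30 °C. Phosphotyrosine detected by AlphaScreen streptavidin donor and PY20 acceptor beads; IC50 from signal versus compound concentration.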

[2] = target: T1, BCR-KIT BaF3 cells (Homo sapiens, UniProt P10721); assay: BaF3 BCR-KIT cell proliferation assay (ATPlite); assay type: cell-based; conditions: read-out: Inhibition of Cell Proliferation IC50, BCR/BaF3 Kit
T1 construct: fused on or other part: P11274 (Breakpoint cluster region protein)
T1 sequence (P10721 589-937): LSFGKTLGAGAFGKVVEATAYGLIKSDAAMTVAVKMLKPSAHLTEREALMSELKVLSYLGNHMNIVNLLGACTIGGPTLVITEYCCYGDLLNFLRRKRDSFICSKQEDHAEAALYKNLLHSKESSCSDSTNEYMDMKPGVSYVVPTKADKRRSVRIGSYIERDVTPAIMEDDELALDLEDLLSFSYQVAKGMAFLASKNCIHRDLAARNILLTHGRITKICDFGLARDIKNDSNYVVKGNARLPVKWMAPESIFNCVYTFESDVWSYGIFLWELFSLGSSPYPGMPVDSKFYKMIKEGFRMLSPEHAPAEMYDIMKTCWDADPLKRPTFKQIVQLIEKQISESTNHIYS
Procedure, shortened: (§1)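 ATP-based luminescence (ATPlite), read after 10 min at room temperature, served as a proxy for cell number, and IC50 was fitted against compound concentration. Before that, cells were treated for 3 days with an 8-point 1:3 dilution series starting at 10 μM. BaF3 cells were plated at 10,000/well without IL-3, and MV-4-11 cells at 25,000/well.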

[3] = target: T2, BCR-NTRK2 BaF3 cells (Homo sapiens, UniProt Q16620); assay: BaF3 BCR-NTRK2 cell proliferation assay (ATPlite); assay type: cell-based; conditions: read-out: Inhibition of Cell Proliferation IC50, BCR/BaF3 TrkB
T2 construct: fused on or other part: P11274 (Breakpoint cluster region protein)
T2 sequence (Q16620 538-807): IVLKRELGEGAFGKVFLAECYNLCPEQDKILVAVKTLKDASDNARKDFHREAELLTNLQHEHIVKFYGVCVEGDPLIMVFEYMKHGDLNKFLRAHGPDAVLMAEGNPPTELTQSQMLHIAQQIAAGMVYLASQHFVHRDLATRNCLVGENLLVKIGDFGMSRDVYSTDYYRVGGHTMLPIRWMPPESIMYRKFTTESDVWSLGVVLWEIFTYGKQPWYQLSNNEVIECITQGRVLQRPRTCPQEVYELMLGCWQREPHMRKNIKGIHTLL
Procedure, shortened: as §1

Chain of Fms kinase (P07333 20-972): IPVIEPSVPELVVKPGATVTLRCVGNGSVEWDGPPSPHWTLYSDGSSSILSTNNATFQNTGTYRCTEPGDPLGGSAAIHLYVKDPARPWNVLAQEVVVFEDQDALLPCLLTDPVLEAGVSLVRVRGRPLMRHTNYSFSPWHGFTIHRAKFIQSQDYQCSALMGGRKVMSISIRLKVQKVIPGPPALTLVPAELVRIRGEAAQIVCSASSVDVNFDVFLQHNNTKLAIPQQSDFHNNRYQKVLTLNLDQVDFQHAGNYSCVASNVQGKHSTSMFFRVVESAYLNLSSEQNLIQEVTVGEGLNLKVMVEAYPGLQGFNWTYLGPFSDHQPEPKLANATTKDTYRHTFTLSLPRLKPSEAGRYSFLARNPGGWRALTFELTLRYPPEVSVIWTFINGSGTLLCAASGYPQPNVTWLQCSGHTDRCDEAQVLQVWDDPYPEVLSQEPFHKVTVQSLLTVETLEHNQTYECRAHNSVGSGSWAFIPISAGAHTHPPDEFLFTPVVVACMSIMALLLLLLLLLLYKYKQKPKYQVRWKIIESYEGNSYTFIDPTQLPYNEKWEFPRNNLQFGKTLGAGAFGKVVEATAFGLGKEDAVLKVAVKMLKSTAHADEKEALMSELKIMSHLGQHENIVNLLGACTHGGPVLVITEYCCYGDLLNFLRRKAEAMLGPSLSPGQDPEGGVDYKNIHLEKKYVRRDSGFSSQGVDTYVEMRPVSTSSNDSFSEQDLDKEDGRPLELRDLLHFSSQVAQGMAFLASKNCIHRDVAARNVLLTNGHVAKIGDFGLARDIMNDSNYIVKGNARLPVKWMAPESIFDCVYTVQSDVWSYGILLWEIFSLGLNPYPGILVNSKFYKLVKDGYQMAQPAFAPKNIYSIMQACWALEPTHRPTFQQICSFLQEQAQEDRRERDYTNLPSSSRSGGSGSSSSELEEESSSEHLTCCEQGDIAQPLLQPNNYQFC

| SMILES | IC50 [1] | IC50 [2] | IC50 [3] |
| --- | --- | --- | --- |
| Clc1cnc2[nH]cc(Cc3cnc(NC4CCC4)nc3)c2c1 [Compound P-3007, [5-(5-Chloro-1H-pyrrolo[2,3-b]pyridin-3-ylmethyl)-pyrimidin-2-yl]-cyclobutyl-amine] | < 1000 nM | > 10000 nM | > 10000 nM |
| Cc1cnc2[nH]cc(Cc3ccc(NC4CCCCC4)nc3F)c2c1 [Compound P-3008, cyclohexyl-[6-fluoro-5-(5-methyl-1H-pyrrolo[2,3-b]pyridin-3-ylmethyl)-pyridin-2-yl]-amine] | < 100 nM | > 1000 nM |  |
| O=C(c1ccc(Nc2ccc(C3CC3)nc2)nc1F)c1c[nH]c2ncnc(C3CC3)c12 [Compound P-4040, [6-(6-Cyclopropyl-pyridin-3-ylamino)-2-fluoro-pyridin-3-yl]-(4-cyclopropyl-7H-pyrrolo[2,3-d]pyrimidin-5-yl)-methanone] | < 100 nM | < 100 nM | < 10 nM |
| Fc1nc(Nc2ccc(C3CC3)nc2)ccc1Cc1c[nH]c2ncnc(C3CC3)c12 [Compound P-4041, (6-Cyclopropyl-pyridin-3-yl)-[5-(4-cyclopropyl-7H-pyrrolo[2,3-d]pyrimidin-5-ylmethyl)-6-fluoro-pyridin-2-yl]-amine] | < 100 nM | < 100 nM | < 10 nM |
| Nc1ncnc2[nH]cc(C(=O)c3ccc(NC4CCC(F)(F)CC4)nc3Cl)c12 [Compound P-4046, (4-amino-7H-pyrrolo[2,3-d]pyrimidin-5-yl)-[2-chloro-6-[(4,4-difluorocyclohexyl)amino]-3-pyridyl]methanone] | < 100 nM | < 1000 nM | < 1000 nM |
| CC(C)=CNc1ncnc2[nH]cc(C(=O)c3ccc(NC4CCC(F)(F)CC4)nc3Cl)c12 [Compound P-4047, [2-chloro-6-[(4,4-difluorocyclohexyl)amino]-3-pyridyl]-[4-(2-methylprop-1-enylamino)-7H-pyrrolo[2,3-d]pyrimidin-5-yl]methanone] | > 1000 nM | > 1000 nM | > 1000 nM |
| Nc1ncnc2[nH]cc(C(=O)c3ccc(Nc4ccc(C5CC5)nc4)nc3F)c12 [Compound P-4048, (4-amino-7H-pyrrolo[2,3-d]pyrimidin-5-yl)-[6-[(6-cyclopropyl-3-pyridyl)amino]-2-fluoro-3-pyridyl]methanone] | < 10 nM | < 1000 nM | < 10 nM |
| CC(C)(O)CNc1ncnc2[nH]cc(C(=O)c3ccc(Nc4ccc(C5CC5)nc4)nc3F)c12 [Compound P-4049, [6-[(6-cyclopropyl-3-pyridyl)amino]-2-fluoro-3-pyridyl]-[4-[(2-hydroxy-2-methyl-propyl)amino]-7H-pyrrolo[2,3-d]pyrimidin-5-yl]methanone] | < 10 nM | < 1000 nM | < 1000 nM |
| CCNc1ncnc2[nH]cc(C(=O)c3ccc(NC4CCC(F)(F)CC4)nc3Cl)c12 [Compound P-4050, [2-chloro-6-[(4,4-difluorocyclohexyl)amino]-3-pyridyl]-[4-(ethylamino)-7H-pyrrolo[2,3-d]pyrimidin-5-yl]methanone] | < 1000 nM | > 1000 nM | < 1000 nM |
| CCNc1ncnc2[nH]cc(C(=O)c3cnc(NC4CCC(F)(F)CC4)c(F)c3)c12 [Compound P-4051, [6-[(4,4-difluorocyclohexyl)amino]-5-fluoro-3-pyridyl]-[4-(ethylamino)-7H-pyrrolo[2,3-d]pyrimidin-5-yl]methanone] | < 1000 nM | > 1000 nM | < 10 nM |
| O=C(c1cnc(NC2CCC(F)(F)CC2)c(F)c1)c1c[nH]c2ncnc(NCC(F)(F)F)c12 [Compound P-4052, [6-[(4,4-difluorocyclohexyl)amino]-5-fluoro-3-pyridyl]-[4-(2,2,2-trifluoroethylamino)-7H-pyrrolo[2,3-d]pyrimidin-5-yl]methanone] | < 1000 nM | > 1000 nM | < 1000 nM |
| O=C(c1cnc(NC2CCC(F)(F)CC2)c(F)c1)c1c[nH]c2ncnc(NC3CC3)c12 [Compound P-4053, [4-(cyclopropylamino)-7H-pyrrolo[2,3-d]pyrimidin-5-yl]-[6-[(4,4-difluorocyclohexyl)amino]-5-fluoro-3-pyridyl]methanone] | < 10 nM | < 1000 nM | < 10 nM |
| CNc1ncnc2[nH]cc(C(=O)c3cnc(NC4CCC(F)(F)CC4)c(F)c3)c12 [Compound P-4054, [6-[(4,4-difluorocyclohexyl)amino]-5-fluoro-3-pyridyl]-[4-(methylamino)-7H-pyrrolo[2,3-d]pyrimidin-5-yl]methanone] | < 10 nM | < 1000 nM | < 1000 nM |
